Earlier results as cited in US20070202162A1, “EXTENDED RELEASE PHARMACEUTICAL COMPOSITIONS” (priority 2006, published 2007).
Where a name gives a salt, the structure may show the parent alone.

Conditions: in water and ethanol

- solubility: readily soluble in water and ethanol
Compound: CC(C)NCC(O)COc1cccc2ccccc12 (stereo not shown) [Propranolol hydrochloride, 1-(Isopropylamino)-3-(1-naphthyloxy)-2-propanol]
